In ChEMBL document CHEMBL5143709, “Synthesis and characterization of an orally bioavailable small molecule agonist of the apelin receptor” (Bioorg Med Chem, 2022):

Target: T1, Apelin receptor (Homo sapiens, UniProt P35414)
T1 sequence (P35414 whole entry): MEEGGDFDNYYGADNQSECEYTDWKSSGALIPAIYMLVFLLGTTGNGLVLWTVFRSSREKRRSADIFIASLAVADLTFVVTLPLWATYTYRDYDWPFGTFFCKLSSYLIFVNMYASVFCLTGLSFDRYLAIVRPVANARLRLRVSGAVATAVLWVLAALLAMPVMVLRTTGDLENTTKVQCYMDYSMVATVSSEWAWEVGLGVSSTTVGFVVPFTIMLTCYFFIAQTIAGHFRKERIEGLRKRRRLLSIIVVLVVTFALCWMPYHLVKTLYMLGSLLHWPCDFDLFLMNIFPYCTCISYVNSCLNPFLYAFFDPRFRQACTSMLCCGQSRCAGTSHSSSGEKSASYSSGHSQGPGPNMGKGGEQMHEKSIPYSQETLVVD
Test: Agonist activity at human APJ receptor expressed in CHO cells co-expressing Galphaq16 assessed as stimulation of Ca2+ mobilization measured at 1 sec interval for 90 sec by fluorescent Calcium 5-dye based FLIPR-calcium mobilization assay
Format: functional, cell-based

| Compound | EC50 [nM] |
| --- | --- |
| O=C(C[C@H](CCN1CCCCC1)NC(=O)c1cc(-c2cscn2)n(C2CCCC2)n1)NC1CCC1 | > 10000 |
| CN(C(=O)[C@H](CC(=O)NC1CCC1)NC(=O)c1cc(-c2ccccc2C(F)(F)F)n(C2CCCC2)n1)C1CCCCC1 | 879 |
| O=C(C[C@@H](CN1CCCC(F)(F)C1)NC(=O)c1cc(-c2ccccc2C(F)(F)F)n(C2CCCC2)n1)NC1CCC1 | 910 |
| C#Cc1ccccc1-c1cc(C(=O)N[C@@H](CCN2CCCCC2)CC(=O)NC2CCC2)nn1C1CCCC1 | 267 |
| O=C(C[C@H](CCN1CC2(COC2)C1)NC(=O)c1cc(-c2ccccc2C(F)(F)F)n(C2CCCC2)n1)NC1CCC1 | 162 |

Test system: not listed separately
Test: Apparent permeability from basolateral to apical side in human Caco-2 cells by LC-MS/MS analysis
Format: ADME, cell-based

| Compound | Papp B→A [×10⁻⁶ cm/s] |
| --- | --- |
| Cc1cnn(CC[C@@H](CC(=O)NC2CCC2)NC(=O)c2cc(-c3ccccc3C(F)(F)F)n(C3CCCC3)n2)c1 | 24 |
| O=C(C[C@H](CCN1CCCCC1)NC(=O)c1cc(-c2ccccc2C(F)(F)F)n(C2CCCC2)n1)NC1CCC1 | 52 |

Test system: not listed separately
Test: Metabolic stability in Sprague-Dawley rat liver microsomes assessed as parent compound remaining at 1 uM measured after 30 mins in the presence of NADPH by LC-MS analysis

| Compound | remaining at 0.5 h, 1 µM [%] |
| --- | --- |
| O=C(C[C@H](CCN1CCCCC1)NC(=O)c1cc(-c2ccccc2C(F)(F)F)n(C2CCCC2)n1)NC1CCC1 | 74.6 |
| CC(C)CN(C)CC[C@@H](CC(=O)NC1CCC1)NC(=O)c1cc(-c2ccccc2C(F)(F)F)n(C2CCCC2)n1 | 63.6 |
| CCc1ccccc1-c1cc(C(=O)N[C@@H](CCN2CCCCC2)CC(=O)NC2CCC2)nn1C1CCCC1 | 76.5 |
| CC(F)(F)c1ccccc1-c1cc(C(=O)N[C@@H](CCN2CCCCC2)CC(=O)NC2CCC2)nn1C1CCCC1 | 77.1 |
| COc1cccc(F)c1-c1cc(C(=O)N[C@@H](CCN2CCCCC2)CC(=O)NC2CCC2)nn1C1CCCC1 | 74.3 |
| O=C(C[C@H](CCN1CCCCC1)NC(=O)c1cc(-c2ccccc2C2CC2)n(C2CCCC2)n1)NC1CCC1 | 70.1 |

Target: T1, Apelin receptor
Test: Agonist activity at human APJ receptor expressed in CHO cells assessed as inhibition of forskolin-induced cAMP accumulation measured after 30 mins by TR-FRET based LANCE cAMP assay
Format: functional, cell-based

| Compound | EC50 [nM] |
| --- | --- |
| Cc1cnn(CC[C@@H](CC(=O)NC2CCC2)NC(=O)c2cc(-c3ccccc3C(F)(F)F)n(C3CCCC3)n2)c1 | 54 |
| O=C(C[C@H](CCN1CCCCC1)NC(=O)c1cc(-c2ccccc2C(F)(F)F)n(C2CCCC2)n1)NC1CCC1 | 2.4 |
| CC(C)CN(C)CC[C@@H](CC(=O)NC1CCC1)NC(=O)c1cc(-c2ccccc2C(F)(F)F)n(C2CCCC2)n1 | 0.35 |
| CCc1ccccc1-c1cc(C(=O)N[C@@H](CCN2CCCCC2)CC(=O)NC2CCC2)nn1C1CCCC1 | 7 |
| CC(F)(F)c1ccccc1-c1cc(C(=O)N[C@@H](CCN2CCCCC2)CC(=O)NC2CCC2)nn1C1CCCC1 | 4.3 |
| COc1cccc(F)c1-c1cc(C(=O)N[C@@H](CCN2CCCCC2)CC(=O)NC2CCC2)nn1C1CCCC1 | 5.6 |
| O=C(C[C@H](CCN1CCCCC1)NC(=O)c1cc(-c2ccccc2C2CC2)n(C2CCCC2)n1)NC1CCC1 | 6.4 |

Test system: not listed separately
Test: Efflux ratio of apparent permeability from basolateral to apical side over apical to basolateral side in human Caco-2 cells by LC-MS/MS analysis
Format: ADME, cell-based

| Compound | efflux ratio |
| --- | --- |
| Cc1cnn(CC[C@@H](CC(=O)NC2CCC2)NC(=O)c2cc(-c3ccccc3C(F)(F)F)n(C3CCCC3)n2)c1 | 3 |
| O=C(C[C@H](CCN1CCCCC1)NC(=O)c1cc(-c2ccccc2C(F)(F)F)n(C2CCCC2)n1)NC1CCC1 | 304 |

Test system: not listed separately
Test: Apparent permeability from apical to basolateral side in human Caco-2 cells by LC-MS/MS analysis
Format: ADME, cell-based

| Compound | Papp A→B [×10⁻⁶ cm/s] |
| --- | --- |
| Cc1cnn(CC[C@@H](CC(=O)NC2CCC2)NC(=O)c2cc(-c3ccccc3C(F)(F)F)n(C3CCCC3)n2)c1 | 8 |
